# Data reported in patent US20220409510A1, “Polypeptides And Methods For Improving Skin Conditions” (Interk Peptide Therapeutics Limited, priority 2018, published 2022).
# Tests used:
# [1] = test system: CREB-S133; test: CREB phosphorylation in primary keratinocytes after solar simulated UV-irradiation (western blot); assay type: cell-based; conditions: 0.1, 1 and 5 μM added immediately after ssUV, FIG. 3A
# Protocol: The influence of the polypeptide IK34720 (SEQ ID NO: 3) on CREB phosphorylation was assessed using the following protocol.
# Keratinocytes were harvested and cultured as previously described (Gupta et al., J Invest Dermatol, 2007, 127(3):707-215). Keratinocytes, (passages 1-5) from 3 independent donors were used in the experiments illustrated in FIG. 3.
# Positive control treatment (denoted “D” in FIG. 3) was prepared by solubilizing Calcitriol (1,25-dihydroxyvitamin D3 (1,25(OH)2D3)—Cayman Chemical, Mich., USA) in 100% spectroscopic ethanol (Merck, Darmstadt, Germany) and the final concentration was determined by spectroscopy (NanoDrop 2000, Thermo Fisher Scientific, Mass., USA). The polypeptide IK34720 (SEQ ID NO: 3) was solubilised in phosphate buffered saline (PBS) to a concentration of 1 mM at pH 7.2. A vehicle (denoted as “V” in FIG. 3) constituting 0.1% (v/v) spectroscopic ethanol and 0.1% (v/v) PBS was prepared for use as a negative control.
# Cultured cells were irradiated by solar simulated UV-irradiation (ssUV) using an Oriel 1000W xenon-arc lamp (Stratford, Conn., USA). Irradiation was administered at an energy level of 400 mJ/cm^2 for UVB and 3600 mJ/cm^2 for UVA (total 4000 mJ/cm^2), measured by an OL754 radiometer (Optronics Laboratories Inc., Orlando, Fla.). This dosage equates to approximately 4 min irradiation of the sun at 12 noon in October in Sydney, Australia. […]
# [2] = test system: TGFβRII; test: TGFβRII expression in UV irradiated dermal fibroblasts (Western analysis); assay type: cell-based, human; conditions: 1, 2.5, 5 and 10 μM added immediately after UV; 5 h post UV; primary fibroblasts; FIG. 3B
# Protocol: The influence of the polypeptide IK34720 (SEQ ID NO: 3) on TGFβRII phosphorylation was assessed using the following protocol.
# Human skin dermal fibroblasts were cultured from keratome biopsies of healthy adult human skin. Cells were between passages three and six. For UV irradiation, subconfluent cells were washed once with phosphate-buffered saline (PBS) and irradiated with UV. Immediately following irradiation, negative control (vehicle) or 1 μM, 2.5 μM, 5 μM and 10 μM of IK34720 (“1K” in FIG. 3B, SEQ ID NO: 3) were added to the cell cultures.
# For Western analysis, nuclear extracts were prepared, membrane fractions were prepared and resolved on 8% SDS-polyacrylamide gel electrophoresis, transferred to polyvinylidene difluoride membrane, and reacted with primary antibodies. Blots were visualized and quantified.
# [3] = test system: apoptotic cells in human skin explants; test: Apoptotic sunburn cells in human skin explants after UV-irradiation; assay type: cell-based; conditions: 500 μM
# Protocol: FIGS. 14 and 15 illustrate the effect of the polypeptide IK34720 (SEQ ID NO: 3) on the number of apoptotic cells in human skin explants.
# Skin explants were cultured irradiated and treated as described above for CPD, and subsequent to treatment were stained and quantified as described for Example 6.
# [4] = test system: dermal fibroblasts; test: TBARS lipid peroxidation assay in UV irradiated dermal fibroblasts; assay type: cell-based; conditions: highest concentration (5 μM) of peptide; FIG. 19
# Protocol: The ability of the polypeptide RSKAKNPLYRRRRRRRRR to alter UV-induced oxidative damage of cell-derived lipids was examined using the TBARS thiobarbituric acid-reactive substances (TBARS) lipid peroxidation assay.
# After irradiation or sham-irradiation of dermal fibroblasts, supernatants (900 μL) were collected. In brief, 90 μL of butylated hydroxytoluene (2% w/w in ethanol) was added and samples kept frozen (−20° C.) until the TBARS assay. Petri dishes were washed twice with 1 mL of HBSS, cells scraped in 600 μL of water and 60 μL of 0.5% aqueous Triton X100 added to this solution, for protein determination carried out by the Lowry method (Lowry OH et al, J. Biol. Chem., 1951, 193:265-275). TBARS were fluorometrically assayed as described (Morlière P et al, Biochim. Biophys. Acta, 1991, 1084:261-268). Briefly, thawing samples were heated in the presence of thiobarbituric acid in acidic conditions, and TBARS extracted with 1-butanol and fluorometrically quantified (λexc=515 nm and λem=550 nm). Tetraethoxypropane, which quantitatively yields the malondialdehyde-thiobarbituric acid adduct in the assay conditions, was used for calibration. TBARS values, expressed in malondialdehyde (MDA) equivalents, were normalized to the cell protein for each Petri dish. Each TBARS determination was performed in triplicate (e.g., with three Petri dishes per data point).
# [5] = test system: MM1418-C1 lightly pigmented melanoma cells; test: Melanin content of melanoma cells after UVB radiation; assay type: cell-based; conditions: 10 μM for 24 hours prior to 2 kJ/m2 UVB; measured 24 hours later; vs untreated UVB cells; FIG. 20
# Protocol: The ability of the polypeptide RSKAKNPLYRRRRRRRRR to alter melanin production was examined.
# In brief, MM1418-C1 lightly pigmented melanoma cells were grown in 24 well culture plates and treated with 10 μM RSKAKNPLYRRRRRRRRR (“IK-3”) for 24 hours prior to being exposed to 2 kJ/m2 UVB radiation. Controls (not treated with RSKAKNPLYRRRRRRRRR) labelled “Con” and “UVB”, respectively, were exposed to either 0 or 2 kJ/m2 UVB radiation. Cell groups were returned to the incubator for 24 hours and then the levels of melanin and protein in the cells were measured spectrophotometrically. In each experiment triplicate samples were measured. Data shown in FIG. 19 indicate the average values±SEM (μg melanin/mg cell protein) exposed to 0 or 2 kJ/m2 UVB which had been pre-treated with 0 or 10 μM of RSKAKNPLYRRRRRRRRR 24 hours prior to being exposed to UVB radiation. The t-test (2-tailed) was used to determine statistical significance, *p<0.05, ***p<0.001.
sequence,measurement,setting,value
"RSKAKNPLYRRRRRRRRR [IK34720, 18-residue polypeptide: … with a C-terminal polyarginine region of 8 arginines]",UV-induced phosphorylation of CREB S-133,[1],inhibits UV-induced phosphorylation of serine at position 133 of CREB
same,TGFβRII expression,[2],restored TGFβRII expression in UV treated cells
same,number of apoptotic cells,"[3]; 3 hrs post UV-irradiation, FIG. 14",statistically significantly reduces the number of apoptotic cells
same,number of apoptotic cells,"[3]; 24 hrs post UV-irradiation, FIG. 15",statistically significantly reduces the number of apoptotic cells
same,significant difference in TRS (TBA reactive substances) between Sham and UV irradiation,[4],not seen
same,melanin content of cells,[5],significantly decreased melanin content
